Several values for one entry are separate records, joined by “and”; a condition that tells them apart may be missing. Equal entries are not always repeated.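 Test compounds were applied to cells in 96-well plates for 48 hours at 5 doses. GI50: concentration for 50% inhibition of growth. TGI marks complete inhibition of growth.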

Among the test systems are NCI-H522 lung; NCI/ADR-RES ovarian; SNB-19 CNS; IGROV1 ovarian; MDA-MB-231 breast; OVCAR-4 ovarian; MCF7 breast; RXF 393 renal; 786-0 renal; HCC-2998 colon.
Holding throughout (assay): growth of human tumour cells (NCI), 48 h

Take `COC[C@H](NC(=O)c1cnc(C)s1)C(=O)N[C@@H](COC)C(=O)N[C@@H](Cc1ccccc1)C(=O)[C@@]1(C)CO1`: the GI50 in the assay with NCI-H522 lung was 12.8 µM; in the assay on NCI/ADR-RES ovarian, above 100 µM; with SNB-19 CNS, above 65.3 µM; with IGROV1 ovarian it was 38.8 µM; with MDA-MB-231 breast, 16.2 µM; in the assay on OVCAR-4 ovarian, 44.4 µM. Besides, the GI50 was 11.1 µM in the assay with MCF7 breast, 15.5 µM with RXF 393 renal, 50.1 µM in the assay with 786-0 renal and 18.2 µM in the assay with HCC-2998 colon. The TGI with NCI-H522 lung is 63 µM; with NCI/ADR-RES ovarian, above 100 µM; with SNB-19 CNS it was above 100 µM; in the assay with IGROV1 ovarian, above 100 µM; in the assay on MDA-MB-231 breast, 39 µM; with OVCAR-4 ovarian, above 100 µM. Also, the TGI with MCF7 breast was above 100 µM; in the assay with RXF 393 renal, 33.9 µM; in the assay with 786-0 renal, above 100 µM; in the assay on HCC-2998 colon, 37.6 µM.

For the compound `Cc1ccc(CNc2ccc3nc(CCC4CCCCC4)[nH]c3c2)cc1`, the GI50 was 1.99 µM with NCI-H522 lung; 2.69 µM with NCI/ADR-RES ovarian; 3.54 µM in the assay with SNB-19 CNS; 2.28 µM in the assay on IGROV1 ovarian; 1.68 µM with MDA-MB-231 breast; 3.23 µM with OVCAR-4 ovarian. The GI50 in the assay with MCF7 breast is 2.14 µM; in the assay on RXF 393 renal it was 2.06 µM; in the assay on 786-0 renal it was 2.12 µM; in the assay with HCC-2998 colon, 2.19 µM. Further, the TGI is 5.13 µM in the assay with NCI-H522 lung; 9.51 µM in the assay with NCI/ADR-RES ovarian; above 100 µM in the assay on SNB-19 CNS; 10.3 µM with IGROV1 ovarian; 3.33 µM in the assay on MDA-MB-231 breast; 18.7 µM with OVCAR-4 ovarian. Moreover, the TGI in the assay on MCF7 breast worked out at 6.24 µM; in the assay on RXF 393 renal it was 5.38 µM; in the assay with 786-0 renal, 4.93 µM; in the assay with HCC-2998 colon it was 4.35 µM.

In the case of `CC1=C([Te]c2ccccc2)C(=O)c2ccccc2C1=O`, the GI50 in the assay on NCI-H522 lung is 0.909 µM; in the assay on NCI/ADR-RES ovarian it was 0.426 µM; in the assay on SNB-19 CNS, 0.551 µM; with IGROV1 ovarian it was 0.5 µM; in the assay with MDA-MB-231 breast, 0.227 µM; in the assay on OVCAR-4 ovarian it was 1.63 µM. In addition, the GI50 in the assay on MCF7 breast is 0.249 µM; in the assay with RXF 393 renal, 1.14 µM; in the assay on 786-0 renal it was 2.01 µM; in the assay on HCC-2998 colon it was 0.483 µM. In addition, the TGI in the assay with NCI-H522 lung was determined as 4.24 µM; in the assay on NCI/ADR-RES ovarian, 2.63 µM; in the assay with SNB-19 CNS it was 2.56 µM; in the assay on IGROV1 ovarian, 1.82 µM; in the assay with MDA-MB-231 breast, 0.573 µM; with OVCAR-4 ovarian, 3.53 µM. For the same compound, the TGI in the assay with MCF7 breast is 0.943 µM; in the assay on RXF 393 renal, 4.63 µM; with 786-0 renal it was 3.96 µM; with HCC-2998 colon, 1.55 µM.

For `CC1SC(c2ccccc2Cl)N(NC(=O)C(O)c2ccccc2)C1=O` (centres undefined), the GI50 is 54.4 µM with NCI-H522 lung; 66 µM in the assay with NCI/ADR-RES ovarian; above 100 µM with SNB-19 CNS; 73.1 µM with IGROV1 ovarian; 33.8 µM in the assay on MDA-MB-231 breast; above 100 µM in the assay on OVCAR-4 ovarian. Besides, the GI50 with MCF7 breast is 54.6 µM; in the assay with RXF 393 renal it was above 100 µM; with 786-0 renal, above 100 µM; in the assay with HCC-2998 colon, above 100 µM. For the same compound, the TGI in the assay on NCI-H522 lung, in the assay on NCI/ADR-RES ovarian, in the assay with SNB-19 CNS, with IGROV1 ovarian, with MDA-MB-231 breast and in the assay on OVCAR-4 ovarian was above 100 µM in each case. The TGI in the assay with MCF7 breast, in the assay with RXF 393 renal, in the assay with 786-0 renal and in the assay with HCC-2998 colon was above 100 µM in each case.

Consider `Cn1ncc(Cl)c1-c1cc(C(=O)N[C@H](CN)Cc2cccc(F)c2)sc1Cl`, for which the GI50 in the assay on NCI-H522 lung was 1.41 µM and 6.34 µM; in the assay with NCI/ADR-RES ovarian, 3.28 µM and 9.52 µM; in the assay with SNB-19 CNS it was 0.34 µM and 0.783 µM; in the assay on IGROV1 ovarian, 0.0387 µM and 0.0478 µM; in the assay with MDA-MB-231 breast, 2.25 µM and 2.4 µM; in the assay with OVCAR-4 ovarian it was 4.9 µM and 6.33 µM. Further, the GI50 is 0.128 µM and 0.145 µM in the assay on RXF 393 renal; 0.0578 µM and 0.0899 µM with 786-0 renal; 0.743 µM and 1.54 µM with HCC-2998 colon. The TGI was > 5.8 µM and 20.3 µM in the assay on NCI-H522 lung; > 7.74 µM and 23.5 µM in the assay on NCI/ADR-RES ovarian; 1.87 µM and 13.4 µM in the assay with SNB-19 CNS; 2.65 µM and 4.18 µM in the assay with IGROV1 ovarian; > 8.32 µM and 8.33 µM in the assay on MDA-MB-231 breast; > 10 µM and 19.3 µM in the assay with OVCAR-4 ovarian. The TGI in the assay on MCF7 breast was 2.6 µM and 11.4 µM; in the assay on RXF 393 renal, 1.72 µM and 0.896 µM; in the assay with 786-0 renal, 1.85 µM and 4.12 µM; with HCC-2998 colon it was 2.67 µM and 4.87 µM.

`COc1cnc2c(c1)C(=O)c1c-2n(CCCN2CCCC2)c(=O)c2cc([N+](=O)[O-])ccc12`: the GI50 in the assay with NCI-H522 lung was 0.0607 µM; in the assay with NCI/ADR-RES ovarian, 0.026 µM; in the assay with SNB-19 CNS, 0.0355 µM; in the assay with IGROV1 ovarian it was 0.0187 µM; in the assay with MDA-MB-231 breast, 0.683 µM; with OVCAR-4 ovarian it was 0.0848 µM. For the same compound, the GI50 in the assay on MCF7 breast is below 0.01 µM; in the assay with RXF 393 renal, 0.0611 µM; with 786-0 renal it was 0.0266 µM; in the assay with HCC-2998 colon it was 0.157 µM. For the same compound, the TGI in the assay on NCI-H522 lung is 3.8 µM; in the assay on NCI/ADR-RES ovarian it was 1.31 µM; in the assay with SNB-19 CNS it was 4.3 µM; in the assay on IGROV1 ovarian, 1.36 µM; in the assay on MDA-MB-231 breast it was 2.65 µM; in the assay on OVCAR-4 ovarian, 10.5 µM. Moreover, the TGI with MCF7 breast was 1.46 µM; in the assay with RXF 393 renal, 0.533 µM; with 786-0 renal, 0.152 µM; in the assay with HCC-2998 colon, 2.53 µM.

For the compound `CCOC(=O)C(=Cc1ccc(C#N)cc1)C(=O)OCC`, the GI50 is 1.48 µM with NCI-H522 lung; 3.33 µM with NCI/ADR-RES ovarian; 2.66 µM in the assay on SNB-19 CNS; 2.61 µM in the assay with IGROV1 ovarian; 2.69 µM in the assay with MDA-MB-231 breast; 3.44 µM in the assay on OVCAR-4 ovarian. The GI50 in the assay on MCF7 breast is 2.07 µM; with RXF 393 renal, 1.87 µM; in the assay on 786-0 renal, 1.84 µM; in the assay with HCC-2998 colon, 1.81 µM. Besides, the TGI with NCI-H522 lung is 3.1 µM; in the assay on NCI/ADR-RES ovarian, 23.4 µM; in the assay with SNB-19 CNS, 7.7 µM; with IGROV1 ovarian it was 7.96 µM; in the assay with MDA-MB-231 breast, 6.95 µM; with OVCAR-4 ovarian it was 12.6 µM. The TGI in the assay with MCF7 breast stood at 7.61 µM; in the assay with RXF 393 renal, 3.36 µM; in the assay on 786-0 renal it was 3.88 µM; with HCC-2998 colon, 3.43 µM.

Values taken from PubChem BioAssay (NCI).
